The results in this text go back to ChEMBL document CHEMBL3596147, “Synthesis and antitumor activity of 5-(5-halogenated-2-oxo-1H-pyrrolo[2,3-b]pyridin-(3Z)-ylidenemethyl)-2,4-dimethyl-1H-pyrrole-3-carboxamides” (Bioorg Med Chem Lett, 2015).

SMILES strings stand for the structures. Some results are limits rather than exact numbers.

As a reminder, the inhibition is the drop in the measured response relative to a control, in per cent. The IC50 is the concentration at which inhibition is half-maximal.

In assay [1] the test system is MCF7. The assay can be described thus: Cytotoxicity against human MCF7 cells assessed as inhibition of cell viability at 30 uM after 48 hrs by SRB assay. It is filed as functional. The note with it: MCF7, 48 h. Background: Sulforhodamine B stains cellular protein and so reports cell mass.
A further assay relates to HepG2. The assay can be described thus: Cytotoxicity against human HepG2 cells assessed as inhibition of cell viability after 48 hrs by SRB assay. It is filed as functional, cell-based. The note with it: HepG2, 48 h.
In the next assay the test system is HT-29. The assay can be described thus: Cytotoxicity against human HT-29 cells assessed as inhibition of cell viability after 48 hrs by SRB assay. It is filed as functional, cell-based. The note with it: HT-29, 48 h.
For assay [2], the system named is MCF7. Put plainly: Cytotoxicity against human MCF7 cells assessed as inhibition of cell viability after 48 hrs by SRB assay. The note with it: MCF7, 48 h. It is filed as functional, cell-based.
Assay [3] in a line: Cytotoxicity against human PANC1 cells assessed as inhibition of cell viability after 48 hrs by SRB assay. It is filed as functional, cell-based. The note with it: PANC-1, 48 h.
The test system of another assay is SK-OV-3. Put plainly: Cytotoxicity against human SKOV3 cells assessed as inhibition of cell viability after 48 hrs by SRB assay. It is filed as functional, cell-based. The note with it: SK-OV-3, 48 h.
A further assay has as its system HeLa. The assay can be described thus: Cytotoxicity against human HeLa cells assessed as inhibition of cell viability after 48 hrs by SRB assay. It is filed as functional, cell-based.
The subject of another assay is A549. Put plainly: Cytotoxicity against human A549 cells assessed as inhibition of cell viability after 48 hrs by SRB assay. Format: functional, cell-based. The note with it: A549, 48 h.

Take `CCN(CC)CCNC(=O)c1c(C)[nH]c(/C=C2\C(=O)Nc3ncc(F)cc32)c1C`: in the assay on MCF7 [1], the inhibition at 30 µM was found to be 70.7%. The IC50 was 15 µM with HepG2, 6.27 µM in the assay on HT-29, greater than 30 µM in the assay with MCF7 [2] and greater than 30 µM in assay [3].

As to `CCOC(=O)c1c(C)[nH]c(/C=C2\C(=O)Nc3ncc(F)cc32)c1C`, in the assay with MCF7 [1], the inhibition at 30 µM was 60.4%.

For `Cc1[nH]c(/C=C2\C(=O)Nc3ncc(F)cc32)c(C)c1C(=O)O`, the inhibition at 30 µM in the assay on MCF7 [1] is 20.5%.

Take `Cc1[nH]c(/C=C2\C(=O)Nc3ncc(F)cc32)c(C)c1C(=O)NCCN(C)C`: the inhibition at 30 µM with MCF7 [1] worked out at 61.1%.

Consider `Cc1[nH]c(/C=C2\C(=O)Nc3ncc(F)cc32)c(C)c1C(=O)NCCN1CCOCC1`, for which, in the assay with MCF7 [1], the inhibition at 30 µM was 15.6%.

`Cc1[nH]c(/C=C2\C(=O)Nc3ncc(F)cc32)c(C)c1C(=O)NCC1CCN(C)CC1`: the inhibition at 30 µM in the assay with MCF7 [1] was 78%. Also, the IC50 in the assay on HepG2 was 21.2 µM; in the assay with HT-29, 5.72 µM; in the assay with MCF7 [2], greater than 30 µM; in assay [3] it was greater than 30 µM.

For `Cc1[nH]c(/C=C2\C(=O)Nc3ncc(F)cc32)c(C)c1C(=O)NCCN1CCCC1`, in the assay with MCF7 [1], the inhibition at 30 µM is 37.5%.

In the case of `Cc1[nH]c(/C=C2\C(=O)Nc3ncc(F)cc32)c(C)c1C(=O)NC1CC1`, the inhibition at 30 µM in the assay with MCF7 [1] is 6.3%.

On to `Cc1[nH]c(/C=C2\C(=O)Nc3ncc(F)cc32)c(C)c1C(=O)NCCOc1ccccc1`, for which, in the assay on MCF7 [1], the inhibition at 30 µM came out at 2.8%.

In the case of `Cc1[nH]c(/C=C2\C(=O)Nc3ncc(F)cc32)c(C)c1C(=O)NCCOCc1ccccc1`, the inhibition at 30 µM in the assay with MCF7 [1] came to 4.1%.

For `Cc1[nH]c(/C=C2\C(=O)Nc3ncc(F)cc32)c(C)c1C(=O)NCC(C)O` (configuration not stated), the inhibition at 30 µM with MCF7 [1] worked out at 0%.

`CCOC(=O)c1c(C)[nH]c(/C=C2\C(=O)Nc3ncc(Cl)cc32)c1C`: the inhibition at 30 µM in the assay with MCF7 [1] was 54.8%.

Turning to `Cc1[nH]c(/C=C2\C(=O)Nc3ncc(Cl)cc32)c(C)c1C(=O)O`, the inhibition at 30 µM in the assay on MCF7 [1] is 15.8%.

For the compound `Cc1[nH]c(/C=C2\C(=O)Nc3ncc(Cl)cc32)c(C)c1C(=O)NCCN(C)C`, the inhibition at 30 µM with MCF7 [1] was 45.7%.

Consider `CCN(CC)CCNC(=O)c1c(C)[nH]c(/C=C2\C(=O)Nc3ncc(Cl)cc32)c1C`, for which the inhibition at 30 µM with MCF7 [1] stood at 88.9%. In addition, the IC50 in the assay with SK-OV-3 came to 8.28 µM; with HepG2, 12.4 µM; in the assay on HeLa, 29.4 µM; in the assay on HT-29, 6.93 µM; in the assay on MCF7 [2] it was 26.3 µM; with A549 it was 10.3 µM. Besides, the IC50 in assay [3] stood at 14 µM.

For `Cc1[nH]c(/C=C2\C(=O)Nc3ncc(Cl)cc32)c(C)c1C(=O)NCCN1CCOCC1`, the inhibition at 30 µM in the assay with MCF7 [1] was 6%.

In the case of `Cc1[nH]c(/C=C2\C(=O)Nc3ncc(Cl)cc32)c(C)c1C(=O)NCC1CCN(C)CC1`, the inhibition at 30 µM with MCF7 [1] came to 88.4%. In addition, the IC50 is 16.4 µM in the assay on SK-OV-3; 12.7 µM in the assay with HepG2; greater than 30 µM in the assay with HeLa; 5.57 µM in the assay with HT-29; greater than 30 µM in the assay on MCF7 [2]; 16.9 µM in the assay on A549. For the same compound, the half-inhibitory concentration (IC50) in assay [3] is greater than 30 µM.

With `Cc1[nH]c(/C=C2\C(=O)Nc3ncc(Cl)cc32)c(C)c1C(=O)NCCN1CCCC1`, the inhibition at 30 µM in the assay with MCF7 [1] turned out to be 91.3%. Besides, the concentration for half-maximal inhibition (IC50) in the assay with SK-OV-3 turned out to be 16.1 µM; in the assay on HepG2 it was 7.87 µM; in the assay with HeLa it was 24.5 µM; with HT-29, 12.5 µM; in the assay with MCF7 [2], 15.6 µM; in the assay with A549, 11.4 µM. In assay [3], the IC50 came to 10.3 µM.

Regarding `Cc1[nH]c(/C=C2\C(=O)Nc3ncc(Cl)cc32)c(C)c1C(=O)NC1CC1`, in the assay on MCF7 [1], the inhibition at 30 µM worked out at 6.2%.

For the compound `CCOC(=O)c1c(C)[nH]c(/C=C2\C(=O)Nc3ncc(Br)cc32)c1C`, in the assay on MCF7 [1], the inhibition at 30 µM was 6.3%.

For `Cc1[nH]c(/C=C2\C(=O)Nc3ncc(Br)cc32)c(C)c1C(=O)O`, in the assay on MCF7 [1], the inhibition at 30 µM was determined as 19.6%.

Regarding `Cc1[nH]c(/C=C2\C(=O)Nc3ncc(Br)cc32)c(C)c1C(=O)NCCN(C)C`, the inhibition at 30 µM in the assay on MCF7 [1] was determined as 79.4%. Also, the IC50 with SK-OV-3 was determined as 4.98 µM; in the assay with HepG2 it was 6.57 µM; in the assay on HeLa, 17.9 µM; with HT-29, 5.04 µM; with MCF7 [2] it was 14.1 µM; in the assay with A549 it was 4.57 µM. Further, in assay [3], the IC50 turned out to be 11.6 µM.

With `CCN(CC)CCNC(=O)c1c(C)[nH]c(/C=C2\C(=O)Nc3ncc(Br)cc32)c1C`, the inhibition at 30 µM with MCF7 [1] worked out at 89.7%. In addition, the IC50 with SK-OV-3 turned out to be 11.8 µM; with HepG2, 12 µM; in the assay on HeLa, 26.7 µM; in the assay with HT-29 it was 3.99 µM; in the assay on MCF7 [2] it was 27.8 µM; in the assay with A549 it was 6.46 µM. Further, in assay [3], the IC50 was 15.6 µM.

Take `Cc1[nH]c(/C=C2\C(=O)Nc3ncc(Br)cc32)c(C)c1C(=O)NCCN1CCOCC1`: the inhibition at 30 µM with MCF7 [1] is 6%.

For the compound `Cc1[nH]c(/C=C2\C(=O)Nc3ncc(Br)cc32)c(C)c1C(=O)NCC1CCN(C)CC1`, the inhibition at 30 µM in the assay with MCF7 [1] amounted to 82.8%. In addition, the IC50 with SK-OV-3 is 19.2 µM; in the assay on HepG2, 21.8 µM; with HeLa, greater than 30 µM; in the assay with HT-29, 5.57 µM; in the assay with MCF7 [2], greater than 30 µM; in the assay with A549, 15.2 µM. Further, in assay [3], the IC50 was 26.9 µM.

Consider `Cc1[nH]c(/C=C2\C(=O)Nc3ncc(Br)cc32)c(C)c1C(=O)NCCN1CCCC1`, for which the inhibition at 30 µM with MCF7 [1] came out at 86.9%. For the same compound, the concentration for half-maximal inhibition (IC50) with SK-OV-3 was determined as 5.15 µM; with HepG2 it was 9.36 µM; in the assay with HeLa it was 15.4 µM; with HT-29, 4.49 µM; in the assay with MCF7 [2], 15.1 µM; with A549 it was 4.82 µM. The IC50 in assay [3] was determined as 6.2 µM.

As to `Cc1[nH]c(/C=C2\C(=O)Nc3ncc(Br)cc32)c(C)c1C(=O)NC1CC1`, the inhibition at 30 µM in the assay with MCF7 [1] was determined as 5.5%.

In the case of `CCN(CC)CCNC(=O)c1c(C)[nH]c(/C=C2\C(=O)Nc3ccc(F)cc32)c1C` [SUNITINIB], in the assay with MCF7 [1], the inhibition at 30 µM was 94%. For the same compound, the IC50 is 9.21 µM in the assay on SK-OV-3; 16.1 µM in the assay on HepG2; greater than 30 µM in the assay on HeLa; 4.7 µM in the assay on HT-29; 25.4 µM in the assay with MCF7 [2]; 7.93 µM in the assay with A549. Also, the IC50 in assay [3] came to 14.9 µM.
